Assay results as given in article PMC6669513, “Identification of A Novel Antibacterial Peptide from Atlantic Mackerel belonging to the GAPDH-Related Antimicrobial Family and Its In Vitro Digestibility” (Marine Drugs, 2019).
No end group written: not given here.

How the values were obtained:
[1] = tested on: Listeria ivanovii ATCC 19119; details: ATCC 19119, 48 h
Enterococcus faecium L1 = details: L1, 48 h
Micrococcus luteus 272 = assay: MIC, broth microdilution; assay type: cell-based; details: two-fold dilution series from 1.050 mM stock in Mueller-Hinton Broth or Brucella Broth; 5.10^5 CFU/mL; visible growth after 24 or 48 h
[2] = tested on: Staphylococcus aureus ATCC 25923; details: ATCC 25923, 48 h
Bacillus megaterium B301 = details: Bacillus B301, 48 h
[3] = assay type: in vitro ADME
Procedure: The dynamic GI TIM-1 Model (TNO Nutrition and Food Research Institute, Zeist, the Netherlands) described previously by was used for evaluation of peptide digestibility. Gastric pH began at 4.5 and decreased gradually to 3.6 after 20 min, 2.7 after 40 min and 2.0 after 60 min of digestion by injecting 0.5 mol/L HCl, finally reaching 1.7 after 120 min. The pH of the duodenal, jejunal and ileal compartments was adjusted to 6, 6.8 and 7.2, respectively, by injecting 0.5 mol/L sodium bicarbonate solution. Gastric secretions consisted of pepsin (0.163 mg/mL) from porcine gastric mucosa (EC 3.4.23.1; Sigma-Aldrich Canada Ltd., Oakville, ON, Canada) and lipase (0.133 mg/mL) from Rhizopus oryzae (EC 3.1.1.3; Amano Pharmaceuticals, Nagoya, Japan), both in an electrolyte solution (NaCl, 6.2 g/L; KCl, 2.2 g/L; CaCl2, 0.3 g/L; NaHCO3, 1.5 g/L) delivered at a flow rate of 0.25 mL/min. […]
To check the digestibility of the synthetic GAPDH-related derived peptide, TIM samples were separated by SPE-C18 before analysis by FPLC with ionic exchange column (IEX). […] The absorbance was recorded at 214 nm and collected fractions were screened for sequence peptides by LC-MS/MS analysis as described above.

[4] = tested on: Bifidobacterium infantis ATCC 15697; details: ATCC 15697, 48 h
[5] = tested on: Listeria monocytogenes ATCC 15313; details: ATCC 15313, 48 h
[6] = tested on: Blautia coccoides ATCC 29236; details: ATCC 29236, 48 h
[7] = tested on: Vibrio parahaemolyticus ALN-0312; details: 48 h
[8] = tested on: Pseudomonas aeruginosa ATCC 27853; details: ATCC 27853, 48 h
[9] = tested on: Escherichia coli ATCC 25922; details: ATCC 25922, 48 h
[10] = tested on: Enterococcus faecalis ATCC 29212; details: ATCC 29212, 48 h
[11] = tested on: Lactobacillus acidophilus ATCC 4356; assay: MIC, broth microdilution; assay type: cell-based; details: two-fold dilution series from 1.050 mM stock in Mueller-Hinton Broth or Brucella Broth; 5.10^5 CFU/mL; visible growth after 24 or 48 h
[12] = tested on: Bacteroides thetaiotaomicron ATCC 29741; details: two-fold dilution series from 1.050 mM stock in Mueller-Hinton Broth or Brucella Broth; 5.10^5 CFU/mL; visible growth after 24 or 48 h
gastric pepsin = details: upper gastrointestinal conditions; cited from earlier work
Excerpt: Food additives such as AMPs must be safe for the human microbiota and the environment. Consequently, knowing the digestibility of AMPs in the human gastrointestinal tract is critical and should not be underestimated. The TIM-1 model used to evaluate the stability of the synthetic peptide simulated the major GI stress conditions, such as gastric acid environment, excretion of proteolytic enzymes and bile salts, and peristaltic movements.

KVEIVAINDPFIDL [AMGAP]
MIC [1]: 131 µM
MIC (Enterococcus faecium L1): >1050 µM
MIC (Micrococcus luteus 272): 263 µM
MIC [2]: >1050 µM
MIC (Bacillus megaterium B301): >1050 µM
Proportion of intact synthetic peptide in the effluent fraction [3]: 2%
Sensitivity to the digestive process ([3]; pH 2.7): sensitive
MIC [4]: >1050 µM
MIC [5]: 131 µM
MIC [6]: >1050 µM
MIC [7]: >1050 µM
MIC [8]: >1050 µM
MIC [9]: >1050 µM
MIC [10]: >1050 µM
MIC [11]: 263 µM
MIC [12]: 263 µM

pediocin PA-1: pediocin PA-1, compared for stability under upper gastrointestinal conditions (KYYGNGVTCGKHSCSVDWGKATTCIINNGAMAWATGGHQGNHKC; ends and bridges not checked; cysteine pairing not given here; UniProt P29430 19-62, looked up)
Stability with gastric pepsin combined with low pH (gastric pepsin): reduced its stability
